From ChEMBL document CHEMBL1131286, “Design and synthesis of m1-selective muscarinic agonists: (R)-(-)-(Z)-1-Azabicyclo[2.2.1]heptan-3-one, O-(3-(3'-methoxyphenyl)-2-propynyl)oxime maleate (CI-1017), a functionally m1-selective muscarinic agonist” (J Med Chem, 1998)
One block for each molecule: values may come before it. The source made the active and inactive calls. The calls are words filed in the database; no cut-off is given here.

Assays:
[1] = target: T1, Muscarinic acetylcholine receptor M1 (Homo sapiens) (UniProt P11229); experiment: Stimulations of inositol phosphate(PI) accumulation in transfected CHO cells in Muscarinic acetylcholine receptor M1 values are the maximal response obtained from the compound tested at 100 uM normalized to the effect of carbachol.; assay type: functional, cell-based
T1 sequence (whole entry): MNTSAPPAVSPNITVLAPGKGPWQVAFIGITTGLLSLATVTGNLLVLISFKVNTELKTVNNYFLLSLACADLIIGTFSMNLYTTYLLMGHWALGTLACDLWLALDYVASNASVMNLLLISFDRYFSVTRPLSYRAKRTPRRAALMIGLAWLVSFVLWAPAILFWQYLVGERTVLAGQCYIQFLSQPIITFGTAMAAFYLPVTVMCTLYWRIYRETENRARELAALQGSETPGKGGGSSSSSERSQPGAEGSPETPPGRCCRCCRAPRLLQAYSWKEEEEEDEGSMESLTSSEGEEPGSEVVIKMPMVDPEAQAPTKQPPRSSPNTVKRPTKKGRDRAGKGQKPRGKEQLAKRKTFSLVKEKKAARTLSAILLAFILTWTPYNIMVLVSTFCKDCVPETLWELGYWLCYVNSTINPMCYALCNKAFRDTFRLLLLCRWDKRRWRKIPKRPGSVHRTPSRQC

[2] = target: Muscarinic acetylcholine receptor M3 (Homo sapiens) (UniProt P20309); experiment: Stimulations of inositol phosphate(PI) accumulation in transfected CHO cells in Muscarinic acetylcholine receptor M3 values are the maximal response obtained from the compound tested at 100 uM normalized to the effect of carbachol.; assay type: functional, cell-based
[3] = target: Muscarinic acetylcholine receptor (Rattus norvegicus) (UniProt P08482+P08483+P08485+P08911+P10980); experiment: Ratio of QNB binding to CMD binding was evaluated; assay type: protein assay
[4] = target: T2, Muscarinic acetylcholine receptor M2 (Homo sapiens) (UniProt P08172); experiment: Reversal of forskolin-stimulated accumulation of […] in transfected CHO cells, against Muscarinic acetylcholine receptor M2; Not active up to 1 mM; assay type: functional, cell-based
T2 sequence (whole entry): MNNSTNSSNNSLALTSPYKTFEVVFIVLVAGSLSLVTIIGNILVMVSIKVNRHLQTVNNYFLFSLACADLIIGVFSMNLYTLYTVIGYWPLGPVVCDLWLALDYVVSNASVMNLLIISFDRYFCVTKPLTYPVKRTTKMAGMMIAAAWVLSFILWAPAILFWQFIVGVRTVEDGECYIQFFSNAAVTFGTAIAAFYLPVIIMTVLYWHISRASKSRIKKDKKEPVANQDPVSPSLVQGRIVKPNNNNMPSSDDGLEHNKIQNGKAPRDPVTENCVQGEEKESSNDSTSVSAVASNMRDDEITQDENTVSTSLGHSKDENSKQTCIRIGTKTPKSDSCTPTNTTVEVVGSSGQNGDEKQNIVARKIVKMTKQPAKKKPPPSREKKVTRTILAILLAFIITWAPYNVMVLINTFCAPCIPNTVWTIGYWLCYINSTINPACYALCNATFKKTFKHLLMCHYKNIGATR

[5] = target: T3, Muscarinic acetylcholine receptor M4 (Homo sapiens) (UniProt P08173); experiment: Reversal of forskolin-stimulated accumulation of […] in transfected CHO cells, against Muscarinic acetylcholine receptor M4; Not active; assay type: functional, cell-based
T3 sequence (whole entry): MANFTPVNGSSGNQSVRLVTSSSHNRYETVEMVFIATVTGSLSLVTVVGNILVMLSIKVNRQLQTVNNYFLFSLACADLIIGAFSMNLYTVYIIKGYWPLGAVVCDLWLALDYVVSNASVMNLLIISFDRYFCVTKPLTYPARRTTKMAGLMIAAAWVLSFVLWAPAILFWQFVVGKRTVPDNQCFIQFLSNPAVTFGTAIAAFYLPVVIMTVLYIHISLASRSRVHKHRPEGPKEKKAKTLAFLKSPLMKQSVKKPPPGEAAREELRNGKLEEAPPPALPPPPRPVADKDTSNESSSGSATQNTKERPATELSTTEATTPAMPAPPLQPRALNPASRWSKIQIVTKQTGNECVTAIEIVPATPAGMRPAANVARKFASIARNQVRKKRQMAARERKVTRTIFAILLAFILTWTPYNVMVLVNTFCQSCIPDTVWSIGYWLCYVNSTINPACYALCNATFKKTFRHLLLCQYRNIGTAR

[6] = target: T4, Muscarinic acetylcholine receptor M5 (Homo sapiens) (UniProt P08912); experiment: Stimulations of inositol phosphate(PI) accumulation in transfected CHO cells in Muscarinic acetylcholine receptor M5 values are the maximal response obtained from the compound tested at 100 uM normalized to the effect of carbachol.; assay type: functional, cell-based
T4 sequence (whole entry): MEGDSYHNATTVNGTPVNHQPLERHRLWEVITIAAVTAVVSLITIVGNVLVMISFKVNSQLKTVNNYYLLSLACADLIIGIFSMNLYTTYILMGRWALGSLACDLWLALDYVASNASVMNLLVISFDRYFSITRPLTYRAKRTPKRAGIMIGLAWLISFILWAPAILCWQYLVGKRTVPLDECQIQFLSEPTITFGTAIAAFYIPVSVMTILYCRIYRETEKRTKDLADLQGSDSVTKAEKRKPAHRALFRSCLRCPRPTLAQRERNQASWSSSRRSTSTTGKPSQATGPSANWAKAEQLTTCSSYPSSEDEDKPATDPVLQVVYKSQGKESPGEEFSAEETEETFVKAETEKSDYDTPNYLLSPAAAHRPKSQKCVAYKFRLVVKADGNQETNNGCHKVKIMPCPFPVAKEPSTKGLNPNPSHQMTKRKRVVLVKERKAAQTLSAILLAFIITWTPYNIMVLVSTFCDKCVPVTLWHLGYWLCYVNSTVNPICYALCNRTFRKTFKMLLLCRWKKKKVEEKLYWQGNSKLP

[7] = target: T5, Muscarinic acetylcholine receptor M1 (Homo sapiens, UniProt P11229); experiment: biochemical; assay type: cell-based, CHO
T5 sequence (P11229 whole entry): T1 sequence (whole entry)
Description: Binding affinity of [3H]-QNB to CHO cells expressing human Muscarinic acetylcholine receptor M1

[8] = target: Muscarinic acetylcholine receptor M3 (Homo sapiens) (UniProt P20309); experiment: Inositol phosphate(PI) accumulation in CHO cells expressing Muscarinic acetylcholine receptor M3 as maximal response at 100 uM relative to carbachol; assay type: functional, cell-based
[9] = target: T6, Muscarinic acetylcholine receptor M2 (Homo sapiens, UniProt P08172); experiment: Binding affinity of [3H]QNB to CHO cells expressing human Muscarinic acetylcholine receptor M2; assay type: cell-based
T6 sequence (P08172 whole entry): T2 sequence (whole entry)

[10] = target: T4, Muscarinic acetylcholine receptor M5 (Homo sapiens); experiment: Inositol phosphate(PI) accumulation in CHO cells expressing Muscarinic acetylcholine receptor M5 as maximal response at 100 uM relative to carbachol; assay type: functional, cell-based
[11] = target: T1, Muscarinic acetylcholine receptor M1 (Homo sapiens); experiment: Stimulations of inositol phosphate(PI) accumulation in transfected CHO cells in Muscarinic acetylcholine receptor M1 values are the maximal response obtained from the compound tested at 100 uM normalized to the effects of carbachol.; assay type: functional, cell-based
[12] = target: Muscarinic acetylcholine receptor M3 (Homo sapiens) (UniProt P20309); settings: NIH3T3
Description: Amplification of transfected NIH3T3 cells was measured in Muscarinic acetylcholine receptor M3 required to produce half maximal effect

[13] = target: Muscarinic acetylcholine receptor M3 (Homo sapiens) (UniProt P20309); experiment: Maximal response obtained for each drug normalized to effect of carbachol in Muscarinic acetylcholine receptor M3; assay type: functional
[14] = target: T2, Muscarinic acetylcholine receptor M2 (Homo sapiens); experiment: Amplification of transfected NIH3T3 cells was measured in Muscarinic acetylcholine receptor M2 required to produce half maximal effect; assay type: functional, cell-based
[15] = target: T1, Muscarinic acetylcholine receptor M1 (Homo sapiens); experiment: Stimulation of inositol phosphate(PI) accumulation in CHO cells expressing Muscarinic acetylcholine receptor M1 as maximal response at 100 uM relative to carbachol; assay type: functional, cell-based
[16] = target: T2, Muscarinic acetylcholine receptor M2 (Homo sapiens); experiment: Maximal response obtained for each drug normalized to effect of carbachol in Muscarinic acetylcholine receptor M2; assay type: functional
[17] = target: T1, Muscarinic acetylcholine receptor M1 (Homo sapiens); settings: NIH3T3
[18] = target: T4, Muscarinic acetylcholine receptor M5 (Homo sapiens); experiment: Maximal response obtained for each drug normalized to effect of carbachol in Muscarinic acetylcholine receptor M5; assay type: functional
[19] = target: T4, Muscarinic acetylcholine receptor M5 (Homo sapiens); experiment: Stimulations of inositol phosphate(PI) accumulation in transfected CHO cells in Muscarinic acetylcholine receptor M5 values are the maximal response obtained from the compound tested at 100 uM normalized to the effects of carbachol.; assay type: functional, cell-based
[20] = target: T1, Muscarinic acetylcholine receptor M1 (Homo sapiens); experiment: Maximal response obtained for each drug normalized to effect of carbachol in Muscarinic acetylcholine receptor M1; assay type: functional
[21] = target: T3, Muscarinic acetylcholine receptor M4 (Homo sapiens); experiment: Maximal response obtained for each drug normalized to effect of carbachol in Muscarinic acetylcholine receptor M4; assay type: functional
[22] = target: T3, Muscarinic acetylcholine receptor M4 (Homo sapiens); experiment: Reversal of forskolin-stimulated accumulation of […] in transfected CHO cells, against Muscarinic acetylcholine receptor M4; NA=Not active up to 1 mM; assay type: functional, cell-based
[23] = target: T4, Muscarinic acetylcholine receptor M5 (Homo sapiens); experiment: Amplification of transfected NIH3T3 cells was measured in Muscarinic acetylcholine receptor M5 required to produce half maximal effect; assay type: functional, cell-based
[24] = target: T3, Muscarinic acetylcholine receptor M4 (Homo sapiens); experiment: Amplification of transfected NIH3T3 cells was measured in Muscarinic acetylcholine receptor M4 required to produce half maximal effect; assay type: functional, cell-based
[25] = target: Muscarinic acetylcholine receptor; experiment: Muscarinic acetylcholine receptor binding assay was conducted using [3H]quinuclidinyl benzilate (QNB) to label antagonist sites in membrane preparations from rat neocortex
[26] = target: T5, Muscarinic acetylcholine receptor M1; experiment: Binding affinity of compound labeled by [3H]QNB in CHO cells selectively expressing human Muscarinic acetylcholine receptor M1; assay type: cell-based
[27] = target: T6, Muscarinic acetylcholine receptor M2; experiment: Binding affinity of compound labeled by [3H]QNB in CHO cells selectively expressing human Muscarinic acetylcholine receptor M2; assay type: cell-based
[28] = target: Muscarinic acetylcholine receptor; experiment: Muscarinic acetylcholine receptor binding assay was conducted using [3H]cis-methyldioxolane (CMD) to label agonist sites in membrane preparations from rat neocortex

Muscarinic acetylcholine receptor M3 (Homo sapiens), sequence (P20309 whole entry, looked up): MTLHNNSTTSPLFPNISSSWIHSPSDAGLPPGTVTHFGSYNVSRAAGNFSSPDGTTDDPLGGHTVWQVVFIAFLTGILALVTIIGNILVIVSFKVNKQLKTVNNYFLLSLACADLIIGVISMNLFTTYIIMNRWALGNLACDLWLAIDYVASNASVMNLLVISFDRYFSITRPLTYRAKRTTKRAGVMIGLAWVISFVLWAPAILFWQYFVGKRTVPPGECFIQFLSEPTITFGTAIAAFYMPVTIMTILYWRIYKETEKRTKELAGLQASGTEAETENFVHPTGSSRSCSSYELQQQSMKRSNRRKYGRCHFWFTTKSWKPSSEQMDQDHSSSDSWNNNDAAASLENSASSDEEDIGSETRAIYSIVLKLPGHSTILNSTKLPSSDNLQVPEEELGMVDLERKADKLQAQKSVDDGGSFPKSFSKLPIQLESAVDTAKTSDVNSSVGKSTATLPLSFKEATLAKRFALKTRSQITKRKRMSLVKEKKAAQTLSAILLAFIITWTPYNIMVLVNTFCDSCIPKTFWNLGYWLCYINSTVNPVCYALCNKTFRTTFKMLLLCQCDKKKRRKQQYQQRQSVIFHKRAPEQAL

SMILES: C(#Cc1ccccc1)CO/N=C1\CN2CCC1C2 (stereo not given)
Stimulations [1]: 40% | Stimulations [2]: 8% | Ratio [3]: 108 | ED50 [4]: inactive | ED50 [5]: inactive | Stimulations [6]: 1%

IC50 [7]: 3340 nM | CCh [8]: 4% | IC50 [9]: 20600 nM | Ratio [3]: 203 | CCh [10]: 3% | CCh [11]: 41%
SMILES: Clc1cccc(C#CCO/N=C2\CN3CCC2C3)c1 (stereo not given)

ED50 [12]: 3860 nM | IC50 [7]: 7680 nM | CCh [13]: 93% | ED50 [14]: 1320 nM | CCh [8]: 6% | IC50 [9]: 52000 nM | CCh [15]: 82% | CCh [16]: 81% | Ratio [3]: 250 | ED50 [17]: 42 nM | CCh [18]: 103% | ED50 [4]: inactive | CCh [19]: 11% | CCh [20]: 30% | CCh [21]: 68% | ED50 [22]: inactive | ED50 [23]: 5990 nM | ED50 [24]: 93 nM
SMILES: COc1cccc(C#CCO/N=C2\CN3CCC2C3)c1 (stereo not given)

SMILES: CC(C)=CCO/N=C1\CN2CCC1C2 (stereo not given)
IC50 [25]: 1270 nM | Ratio [3]: 179 | IC50 [26]: 216 nM | IC50 [27]: 519 nM | IC50 [28]: 7.08 nM
